# According to US20140242093A1, “METHODS AND COMPOSITIONS FOR MODULATING THE INNATE IMMUNE RESPONSE AND/OR MYOGENESIS IN A MAMMALIAN SUBJECT” (FRED HUTCHINSON CANCER RESEARCH CENTER, priority 2011, published 2014):
# System: control human primary myoblasts
# Assay: Expression microarray of primary myoblasts transduced with lentivirus carrying DUX4-fl, DUX4-s or GFP
# Details: log2 fc vs lenti-GFP, 24 h
# Method: Primary human myoblasts were collected and cultured as previously described (Snider et al., 2010). Primary myoblasts were maintained at or below 70% confluency for proliferation. For differentiation, cells were allowed to reach 95-100% confluency in growth medium. Once confluency was reached, the cells were changed to differentiation medium (F10 media supplemented with 1% horse serum, 10 μg/mL insulin, and 10 μg/mL transferrin, penicillin/streptomycin) and maintained for 4 days. Human RD cells were grown in DMEM in 10% bovine calf serum (Hyclone) and penicillin/streptomycin. The primary myoblasts were transduced with lentivirus carrying DUX-fl, DUX4- or GFP (MOI=15).
# Expression microarrays were performed on the transduced cells at 24 hours after transduction as follows. […] Samples were analyzed by Illumina Human Whole Genome microarrays. Probe intensities were corrected, normalized, and summarized by the Lumi package of Bioconductor (Du et al., 2008). Differentially expressed genes were identified by the LIMMA package of Bioconductor (Wettenhall and Smyth, 2004). Gene set enrichment analysis (GSEA) was performed using the Bioconductor GOstats package (Falcon and Gentleman, 2007).
substance,measurement,value
"DUX4-fl: full-length DUX4 protein (SEQ ID NO:110), expressed from lentiviral or pCS2 vectors or in vitro translated",full_fc ART3,4.363
same,full_fc C6orf148,6.759
same,full_fc C12orf50,4.522
same,full_fc CA2,6.091
same,full_fc CCNA1,7.526
same,full_fc CSAG3,5.871
same,full_fc DEFB103A,6.442
same,full_fc ENTPD8,4.073
same,full_fc HBA1,4.787
same,full_fc HBA2,4.721
same,full_fc HIST2H3A,4.945
same,full_fc KHDC1L,8.012
same,full_fc LOC136157,8.299
same,full_fc LOC196120,8.179
same,full_fc LOC284428,8.023
same,full_fc LOC340096,7.382
same,full_fc LOC340970,8.316
same,full_fc LOC342900,7.391
same,full_fc LOC390031,8.331
same,full_fc LOC391742,5.733
same,full_fc LOC391764,5.821
same,full_fc LOC391766,5.724
same,full_fc LOC391767,5.492
same,full_fc LOC391769,8.19
same,full_fc LOC399939,6.931
same,full_fc LOC399940,4.727
same,full_fc LOC401860,4.272
same,full_fc LOC402199,4.392
same,full_fc LOC402207,4.903
same,full_fc LOC440040,7.534
same,full_fc LOC440563,5.312
same,full_fc LOC441584,7.781
same,full_fc LOC642127,6.112
same,full_fc LOC642148,6.851
same,full_fc LOC642219,4.799
same,full_fc LOC642362,8.016
same,full_fc LOC643263,8.345
same,full_fc LOC643445,8.25
same,full_fc LOC645558,4.803
same,full_fc LOC645669,8.202
same,full_fc LOC646066,4.391
same,full_fc LOC646103,4.658
same,full_fc LOC646698,6.012
same,full_fc LOC646754,5.11
same,full_fc LOC647827,4.053
same,full_fc LOC651308,8.169
same,full_fc LOC653192,8.228
same,full_fc LOC653656,7.897
same,full_fc LOC653657,7.857
same,full_fc LOC654101,5.034
same,full_fc LOC729368,5.416
same,full_fc LOC729384,6.832
same,full_fc LOC729458,8.247
same,full_fc LOC729516,5.955
same,full_fc LOC729694,4.029
same,full_fc LOC729700,4.817
same,full_fc LOC729706,4.227
same,full_fc LOC729731,5.007
same,full_fc LOC730974,7.715
same,full_fc LOC732393,4.637
same,full_fc LOC100131392,6.976
same,full_fc LOC100131539,4.629
same,full_fc LOC100133446,4.635
same,full_fc LOC100133984,6.204
same,full_fc LOC100134006,7.087
same,full_fc LOC100134199,8.048
same,full_fc MBD3L2,7.623
same,full_fc NP,6.961
same,full_fc NXF1,4.233
same,full_fc OR2T34,4.519
same,full_fc PPP2R2B,4.13
same,full_fc PRAMEF1,8.072
same,full_fc PRAMEF2,6.439
same,full_fc PRAMEF4,7.06
same,full_fc PRAMEF5,7.35
same,full_fc PRAMEF6,5.826
same,full_fc PRAMEF7,7.631
same,full_fc PRAMEF9,7.131
same,full_fc PRAMEF10,6.064
same,full_fc PRAMEF11,5.94
same,full_fc PRAMEF12,7.802
